For this assay, the system named is L1210 leukemia ip in BDF1 mice, survival T/C. The assay can be described thus: NCI In Vivo Anticancer Drug Screen. Data for tumor model L1210 Leukemia (intraperitoneal) in B6D2F1 (BDF1) mice. The following applies: endpoint: mean survival time, higher = longer survival. In outline:
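Transplanted-tumor mice were given test agent; controls received vehicle only. Survival readings from the two groups were divided (treated over control).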

[1] abbreviates: dose: 100.0 mg/kg/injection, schedule: Q01DX001 (ip), vehicle: saline.
[2] abbreviates: dose: 200.0 mg/kg/injection, schedule: Q01DX001 (ip), vehicle: saline.
The mark [3] stands for this setting: dose: 400.0 mg/kg/injection, schedule: Q01DX001 (ip), vehicle: saline.
[4] abbreviates: dose: 25.0 mg/kg/injection, schedule: Q04DX002 (ip), vehicle: Klucel (hydroxypropylcellulose) (HPC).
Where [5] appears, read: dose: 50.0 mg/kg/injection, schedule: Q04DX002 (ip), vehicle: Klucel (hydroxypropylcellulose) (HPC).
Where [6] appears, read: dose: 100.0 mg/kg/injection, schedule: Q04DX002 (ip), vehicle: Klucel (hydroxypropylcellulose) (HPC).
Where [7] appears, read: dose: 100.0 mg/kg/injection, schedule: Q04DX003 (ip), vehicle: saline.
The mark [8] stands for this setting: dose: 400.0 mg/kg/injection, schedule: Q04DX003 (ip), vehicle: saline.
Setting [9] is: dose: 100.0 mg/kg/injection, schedule: Q04DX002 (ip), vehicle: saline.
Setting [10] is: dose: 200.0 mg/kg/injection, schedule: Q04DX002 (ip), vehicle: saline.
The mark [11] stands for this setting: dose: 100.0 mg/kg/injection, schedule: Q01DX001 (ip), vehicle: Klucel (hydroxypropylcellulose) (HPC).
The mark [12] stands for this setting: dose: 200.0 mg/kg/injection, schedule: Q01DX001 (ip), vehicle: Klucel (hydroxypropylcellulose) (HPC).
Setting [13] is: dose: 400.0 mg/kg/injection, schedule: Q01DX001 (ip), vehicle: Klucel (hydroxypropylcellulose) (HPC).
Setting [14] is: dose: 50.0 mg/kg/injection, schedule: Q01DX009 (ip), vehicle: Klucel (hydroxypropylcellulose) (HPC).
[15] abbreviates: dose: 100.0 mg/kg/injection, schedule: Q01DX009 (ip), vehicle: Klucel (hydroxypropylcellulose) (HPC).
The mark [16] stands for this setting: dose: 100.0 mg/kg/injection, schedule: Q01DX009 (ip), vehicle: saline.
Setting [17] is: dose: 200.0 mg/kg/injection, schedule: Q01DX009 (ip), vehicle: saline.
Setting [18] is: dose: 400.0 mg/kg/injection, schedule: Q01DX009 (ip), vehicle: saline.
The mark [19] stands for this setting: dose: 200.0 mg/kg/injection, schedule: Q01DX009 (ip), vehicle: Klucel (hydroxypropylcellulose) (HPC).
Where [20] appears, read: dose: 400.0 mg/kg/injection, schedule: Q01DX009 (ip), vehicle: Klucel (hydroxypropylcellulose) (HPC).

Molecules are shown by their SMILES. Values joined by “and” are separate entries in the source; they are usually repeats but may differ in a detail not shown here. Equal values may be shown once. Inconclusive results and toxic doses are left out.

`N#Cc1cn(C2OC(CO)C(O)C2O)c2nc(Cl)nc(N)c12` (configuration not stated): the T/C (dose: 7.5 mg/kg/injection, schedule: Q01DX005 (ip), vehicle: saline) was 114 % of control; the T/C (dose: 12.5 mg/kg/injection, schedule: Q01DX005 (ip), vehicle: saline) was 119 % of control; the T/C (dose: 12.5 mg/kg/injection, schedule: Q01DX009 (ip), vehicle: saline) was 117 % of control; the T/C (dose: 21.0 mg/kg/injection, schedule: Q01DX005 (ip), vehicle: saline) was 108 % of control; the T/C (dose: 25.0 mg/kg/injection, schedule: Q01DX005 (ip), vehicle: saline) was 118 % of control; the T/C (dose: 25.0 mg/kg/injection, schedule: Q01DX009 (ip), vehicle: saline) is 98 % of control.
As to `O=C(COc1ccc([N+](=O)[O-])cc1)Nc1ccc(S(=O)(=O)F)cc1`, the T/C under setting [1] is 103 % of control, the T/C under setting [2] is 107 % of control and the T/C under setting [3] was 103 % of control.
On to `COc1ccc(OC)c(N(CCN2C(=O)c3ccccc3C2=O)C(=O)CCl)c1`, for which the T/C is 97 % of control under setting [4]; 90 % of control under setting [5]; 97 % of control and 91 % of control under setting [6].
On to `CC(=O)NCCN`, for which the T/C by setting is: under setting [7], 92 % of control; under setting [8], 108 % of control.
Turning to `O=C1NC2C=CC1/C=C\C=C/2` (configuration not stated), the T/C runs as follows: under setting [9], 96 % of control; under setting [10], 86 % of control.
`O=C(NO)c1cnccn1`: the T/C runs as follows: (dose: 296.0 mg/kg/injection, schedule: Q01DX015 (ip), vehicle: water) 92 % of control; (dose: 666.0 mg/kg/injection, schedule: Q01DX015 (ip), vehicle: water) 118 % of control; (dose: 1000.0 mg/kg/injection, schedule: Q01DX015 (ip), vehicle: water) 120 % of control.
With `FC(Cl)(Cl)c1nc2nc(Cl)c(Cl)nc2[nH]1`, the T/C is 95 % of control (dose: 25.0 mg/kg/injection, schedule: Q01DX009 (ip), vehicle: water); 94 % of control (dose: 50.0 mg/kg/injection, schedule: Q01DX009 (ip), vehicle: water); 97 % of control (dose: 100.0 mg/kg/injection, schedule: Q01DX009 (ip), vehicle: water).
`CC(=O)OC1CCC2(C)C(=CCC3C2CCC2(C)C3CCC2(O)C(C)=O)C1` (configuration not stated): the T/C runs as follows: under setting [11], 101 % of control; under setting [12], 97 % of control; under setting [13], 98 % of control.
On to `c1ccc(N=C(Nc2ccccc2)Nc2ccccc2)cc1`, for which the T/C is 94 % of control (dose: 25.0 mg/kg/injection, schedule: Q01DX009 (ip), vehicle: Klucel (hydroxypropylcellulose) (HPC)); 114 % of control under setting [4]; 94 % of control under setting [14]; 114 % of control under setting [5]; 90 % of control under setting [15]; 96 % of control and 98 % of control under setting [6].
As for `CC(=O)Nc1ccc2c(c1)C(=O)NC2=O`, the T/C by setting is: under setting [11], 93 % of control; under setting [12], 90 % of control; under setting [13], 90 % of control.
As to `Nc1ncc[nH]1`, the T/C runs as follows: under setting [16], 107 % of control; under setting [9], 90 % of control; under setting [17], 114 % of control; under setting [10], 93 % of control; under setting [18], 122 % of control; (dose: 400.0 mg/kg/injection, schedule: Q04DX002 (ip), vehicle: saline) 90 % of control.
With `CCOC(=O)C1C2CCCC(=O)C21` (configuration not stated), the T/C by setting is: under setting [6], 96 % of control; (dose: 200.0 mg/kg/injection, schedule: Q04DX002 (ip), vehicle: Klucel (hydroxypropylcellulose) (HPC)) 104 % of control; (dose: 400.0 mg/kg/injection, schedule: Q04DX002 (ip), vehicle: Klucel (hydroxypropylcellulose) (HPC)) 100 % of control.
For `O=NN(CCCl)C(=O)Nc1ccc(-c2ccc(NC(=O)N(CCCl)N=O)cc2)cc1`, the T/C (dose: 8.0 mg/kg/injection, schedule: Q01DX001 (ip), vehicle: carboxymethylcellulose (CMC)) is 116 % of control; the T/C (dose: 16.0 mg/kg/injection, schedule: Q01DX001 (ip), vehicle: carboxymethylcellulose (CMC)) was 118 % of control; the T/C (dose: 250.0 mg/kg/injection, schedule: Q01DX001 (ip), vehicle: carboxymethylcellulose (CMC)) was 161 % of control; the T/C (dose: 375.0 mg/kg/injection, schedule: Q01DX001 (ip), vehicle: carboxymethylcellulose (CMC)) was 163 % of control; the T/C (dose: 500.0 mg/kg/injection, schedule: Q01DX001 (ip), vehicle: carboxymethylcellulose (CMC)) was 190 % of control; the T/C (dose: 750.0 mg/kg/injection, schedule: Q01DX001 (ip), vehicle: carboxymethylcellulose (CMC)) is 229 % of control. The T/C is 229 % of control (dose: 1000.0 mg/kg/injection, schedule: Q01DX001 (ip), vehicle: carboxymethylcellulose (CMC)); 232 % of control (dose: 1500.0 mg/kg/injection, schedule: Q01DX001 (ip), vehicle: carboxymethylcellulose (CMC)); 168 % of control (dose: 2000.0 mg/kg/injection, schedule: Q01DX001 (ip), vehicle: carboxymethylcellulose (CMC)); 223 % of control (dose: 2500.0 mg/kg/injection, schedule: Q01DX001 (ip), vehicle: carboxymethylcellulose (CMC)).
For the compound `CCCC1=NNC(=O)C1`, the T/C was 100 % of control (dose: 100.0 mg/kg/injection, schedule: Q01DX001 (ip), vehicle: carboxymethylcellulose (CMC)); 100 % of control (dose: 200.0 mg/kg/injection, schedule: Q01DX001 (ip), vehicle: carboxymethylcellulose (CMC)); 96 % of control (dose: 400.0 mg/kg/injection, schedule: Q01DX001 (ip), vehicle: carboxymethylcellulose (CMC)).
As for `COc1cccc(CN(C)CCC(=O)O)c1`, the T/C runs as follows: under setting [16], 97 % of control; under setting [7], 105 % of control; under setting [17], 94 % of control; (dose: 200.0 mg/kg/injection, schedule: Q04DX003 (ip), vehicle: saline) 109 % of control; under setting [18], 101 % of control; under setting [8], 105 % of control.
For the compound `C/C(N=Nc1ccccc1[N+](=O)[O-])=N\Nc1ccccc1`, the T/C was 95 % of control under setting [14], 97 % of control under setting [15], 95 % of control under setting [19] and 95 % of control under setting [20].
Turning to `CCOc1ccc2c(O)csc2c1`, the T/C is 93 % of control (dose: 100.0 mg/kg/injection, schedule: Q01DX009 (ip), vehicle: saline with Tween-80); 95 % of control (dose: 200.0 mg/kg/injection, schedule: Q01DX009 (ip), vehicle: saline with Tween-80); 97 % of control (dose: 400.0 mg/kg/injection, schedule: Q01DX009 (ip), vehicle: saline with Tween-80).
Take `CCS(=O)c1c(Cl)c(Cl)c(Cl)c(Cl)c1Cl` (configuration not stated): the T/C reads like this: under setting [15], 102 % of control; under setting [19], 108 % of control; under setting [20], 95 % of control.
For the compound `Clc1nc(Cl)c2c(ncn2Cc2ccccc2)n1`, the T/C was 95 % of control (dose: 100.0 mg/kg/injection, schedule: Q01DX001 (ip), vehicle: other) and 104 % of control (dose: 200.0 mg/kg/injection, schedule: Q01DX001 (ip), vehicle: other).
Consider `O=C(O)C(Br)CBr` (configuration not stated), for which the T/C under setting [1] was 90 % of control.
For `CC[CH2][Sn]([CH2]C)([c]1ccccc1)[c]1ccccc1`, the T/C reads like this: under setting [11], 97 % of control; under setting [12], 106 % of control; under setting [13], 101 % of control.
For the compound `CCCCCCCCC(=O)N1CC1`, the T/C by setting is: under setting [14], 94 % of control; (dose: 50.0 mg/kg/injection, schedule: Q04DX003 (ip), vehicle: Klucel (hydroxypropylcellulose) (HPC)) 105 % of control; under setting [15], 94 % of control; (dose: 100.0 mg/kg/injection, schedule: Q04DX003 (ip), vehicle: Klucel (hydroxypropylcellulose) (HPC)) 96 % of control; under setting [19], 96 % of control; (dose: 200.0 mg/kg/injection, schedule: Q04DX003 (ip), vehicle: Klucel (hydroxypropylcellulose) (HPC)) 98 % of control.
Take `O=C(NCCCl)NC1CCCC(O)C1` (configuration not stated): the T/C runs as follows: under setting [1], 101 % of control; under setting [2], 101 % of control; under setting [3], 93 % of control.
